Laboratory results from patent US12479804B2, “Herbicidal compounds” (SYNGENTA CROP PROTECTION AG, priority 2019, dated 2025).

Key:
Assay in all cases: Glasshouse herbicidal test, pre- and post-emergence, percentage damage to the plant
Type in all cases: in vivo
[1] = test system: Alopecurus myosuroides (ALOMY); settings: 250 g/h, evaluated after 13 days; for ALOMY POST percentage damage caused to the plant (five-point scale): post-emergence; for ALOMY PRE percentage damage caused to the plant (five-point scale): pre-emergence
Description: (§1) Seeds of a variety of test species are sown in standard soil in pots (Lolium perenne (LOLPE), Setaria faberi (SETFA), Alopecurus myosuroides (ALOMY), Echinochloa crus-galli (ECHCG), Avena fatua (AVEFA)). After cultivation for one day (pre-emergence) or after 8 days cultivation (post-emergence) under controlled conditions in a glasshouse (at 24/16° C., day/night; 14 hours light; 65% humidity), the plants are sprayed with an aqueous spray solution derived from the formulation of the technical active ingredient in acetone/water (50:50) solution containing 0.5% Tween 20 (polyoxyethelyene sorbitan monolaurate, CAS RN 9005-64-5). Compounds are applied at 250 g/h. The test plants are then grown in a glasshouse under controlled conditions in a glasshouse (at 24/16° C., day/night; 14 hours light; 65% humidity) and watered twice daily. After 13 days for pre and post-emergence, the test is evaluated for the percentage damage caused to the plant. The biological activities are shown in the following table on a five-point scale (5=80-100%; 4=60-79%; 3=40-59%; 2=20-39%; 1=0-19%).

[2] = test system: Avena fatua (AVEFA); settings: 250 g/h, evaluated after 13 days; for AVEFA POST percentage damage caused to the plant (five-point scale): post-emergence; for AVEFA PRE percentage damage caused to the plant (five-point scale): pre-emergence
Description: as §1

[3] = test system: Echinochloa crus-galli (ECHCG); settings: 250 g/h, evaluated after 13 days; for ECHCG POST percentage damage caused to the plant (five-point scale): post-emergence; for ECHCG PRE percentage damage caused to the plant (five-point scale): pre-emergence
Description: as §1

[4] = test system: Lolium perenne (LOLPE); settings: 250 g/h, evaluated after 13 days; for LOLPE POST percentage damage caused to the plant (five-point scale): post-emergence; for LOLPE PRE percentage damage caused to the plant (five-point scale): pre-emergence
Description: as §1

[5] = test system: Setaria faberi (SETFA); settings: 250 g/h, evaluated after 13 days; for SETFA POST percentage damage caused to the plant (five-point scale): post-emergence; for SETFA PRE percentage damage caused to the plant (five-point scale): pre-emergence
Description: as §1

| SMILES | ALOMY POST percentage damage caused to the plant (five-point scale) [1] | ALOMY PRE percentage damage caused to the plant (five-point scale) [1] | AVEFA POST percentage damage caused to the plant (five-point scale) [2] | AVEFA PRE percentage damage caused to the plant (five-point scale) [2] | ECHCG POST percentage damage caused to the plant (five-point scale) [3] | ECHCG PRE percentage damage caused to the plant (five-point scale) [3] | LOLPE POST percentage damage caused to the plant (five-point scale) [4] | LOLPE PRE percentage damage caused to the plant (five-point scale) [4] | SETFA POST percentage damage caused to the plant (five-point scale) [5] | SETFA PRE percentage damage caused to the plant (five-point scale) [5] |
| --- | --- | --- | --- | --- | --- | --- | --- | --- | --- | --- |
| CC#Cc1cc(C)c(C2C(=O)CC3(C=CN(C(=O)NC(=O)c4ccccn4)CC3)CC2=O)c(C)c1 (centres unmarked) [Compound A57] | 5 (5=80-100%) | 5 (5=80-100%) | 5 (5=80-100%) | 4 (4=60-79%) | 5 (5=80-100%) | 5 (5=80-100%) | 5 (5=80-100%) | 5 (5=80-100%) | 5 (5=80-100%) | 5 (5=80-100%) |
| CC#Cc1cc(C)c(C2C(=O)CC3(CCN(C(C)=O)C(C)C3)CC2=O)c(C)c1 (centres unmarked) [Compound A58] | 5 (5=80-100%) | 5 (5=80-100%) | 5 (5=80-100%) | 5 (5=80-100%) | 5 (5=80-100%) | 5 (5=80-100%) | 5 (5=80-100%) | 5 (5=80-100%) | 5 (5=80-100%) | 5 (5=80-100%) |
| CC#Cc1cc(C)c(C2C(=O)CC3(CCN(C(C)=O)CC3C)CC2=O)c(C)c1 (centres unmarked) [Compound A59] | 5 (5=80-100%) | 5 (5=80-100%) | 5 (5=80-100%) | 5 (5=80-100%) | 5 (5=80-100%) | 5 (5=80-100%) | 5 (5=80-100%) | 5 (5=80-100%) | 5 (5=80-100%) | 5 (5=80-100%) |
| CC#Cc1cc(C)c(C2=C(OC(C)=O)CC3(CCCN(C(C)=O)CC3)CC2=O)c(C)c1 (centres unmarked) [Compound P1] | 5 (5=80-100%) | 5 (5=80-100%) | 5 (5=80-100%) | 5 (5=80-100%) | 5 (5=80-100%) | 5 (5=80-100%) | 5 (5=80-100%) | 5 (5=80-100%) | 5 (5=80-100%) | 5 (5=80-100%) |
| CC#Cc1cc(C)c(C2=C(OC(C)=O)CC3(CCN(C(C)=O)C(=O)C3)CC2=O)c(C)c1 (centres unmarked) [Compound P2] | 5 (5=80-100%) | 5 (5=80-100%) | 5 (5=80-100%) | 5 (5=80-100%) | – | 5 (5=80-100%) | 5 (5=80-100%) | 5 (5=80-100%) | 5 (5=80-100%) | 5 (5=80-100%) |
| CC#Cc1cc(C)c(C2=C(OC(=O)OC)CC3(CCN(C(C)=O)C3)CC2=O)c(C)c1 (centres unmarked) [Compound P3] | 5 (5=80-100%) | 5 (5=80-100%) | 5 (5=80-100%) | 4 (4=60-79%) | 5 (5=80-100%) | 5 (5=80-100%) | 5 (5=80-100%) | 5 (5=80-100%) | 5 (5=80-100%) | 5 (5=80-100%) |
